Assay results: ChEMBL document CHEMBL4819111, “Steroidal alkaloids isolated from Veratrum grandiflorum Loes. as novel Smoothened inhibitors with anti-proliferation effects on DAOY medulloblastoma cells” (Bioorg Med Chem, 2021)

Columns and labels:
[1] = Inhibition of hedgehog pathway in mouse Shh Light II cells transfected with Renilla luciferase and firefly luciferase incubated for 48 hrs by dual luciferase reporter gene assay; format: cell-based
Daoy [2] = assay: Antiproliferative activity against human DAOY cells assessed as cell viability at 0.2 uM incubated for 24 hrs by MTT assay relative to control; format: functional; conditions: read-out: Activity
[3] = molecular target: Protein smoothened (Homo sapiens) (UniProt Q99835); assay: Binding affinity to recombinant human Flag-6 x His-tagged Smo expressed in human HEK293T cells assessed as reduction in BODIPY-Cyclopamine binding by measuring fluorescence intensity at 30 uM incubated for 2 to 4 hrs by fluorescence microscopic competitive binding analysis relative to control; format: cell-based; design: scale not given: the % may be the effect or the level left; conditions: time 2-4 hrs
Protein smoothened (Homo sapiens), sequence (Q99835 whole entry): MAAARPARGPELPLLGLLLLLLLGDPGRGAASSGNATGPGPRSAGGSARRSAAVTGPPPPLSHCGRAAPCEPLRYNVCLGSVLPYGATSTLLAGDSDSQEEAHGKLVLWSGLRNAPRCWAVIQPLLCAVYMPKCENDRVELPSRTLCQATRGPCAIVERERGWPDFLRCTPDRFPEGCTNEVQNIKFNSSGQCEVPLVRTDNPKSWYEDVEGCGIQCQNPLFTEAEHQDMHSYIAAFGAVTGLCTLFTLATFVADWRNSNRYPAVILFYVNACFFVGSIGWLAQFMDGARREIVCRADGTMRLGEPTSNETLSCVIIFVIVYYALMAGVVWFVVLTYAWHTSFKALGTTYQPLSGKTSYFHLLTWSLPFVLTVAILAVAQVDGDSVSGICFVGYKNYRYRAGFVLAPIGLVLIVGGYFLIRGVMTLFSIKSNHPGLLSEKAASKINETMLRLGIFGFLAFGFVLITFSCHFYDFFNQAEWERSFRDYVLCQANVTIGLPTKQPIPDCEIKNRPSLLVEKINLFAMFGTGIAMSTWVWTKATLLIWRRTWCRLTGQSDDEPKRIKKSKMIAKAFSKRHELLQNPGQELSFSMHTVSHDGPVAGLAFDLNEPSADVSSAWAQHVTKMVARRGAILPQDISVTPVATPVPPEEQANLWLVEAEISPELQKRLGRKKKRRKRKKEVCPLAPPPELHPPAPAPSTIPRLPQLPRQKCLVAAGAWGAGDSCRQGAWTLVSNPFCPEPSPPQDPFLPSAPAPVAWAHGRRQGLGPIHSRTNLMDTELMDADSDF

[4] = molecular target: Protein smoothened (Homo sapiens) (UniProt Q99835); assay: Binding affinity to recombinant human Flag-6 x His-tagged Smo expressed in human HEK293T cells assessed as reduction in BODIPY-Cyclopamine binding by measuring fluorescence intensity incubated for 2 to 4 hrs by fluorescence microscopic based competitive binding analysis; format: cell-based; conditions: dose 3-30 µM, time 2-4 hrs
Daoy [5] = assay: Antiproliferative activity against human DAOY cells assessed as cell viability at 10 to 30 uM incubated for 24 hrs by MTT assay relative to control; format: functional; conditions: dose 10-30 µM
Daoy [6] = assay: Antiproliferative activity against human DAOY cells assessed as reduction in cell viability incubated for 24 hrs by MTT assay; format: functional, cell-based
Daoy [7] = assay: Antiproliferative activity against human DAOY cells assessed as cell viability at 30 uM incubated for 24 hrs by MTT assay relative to control; format: functional; conditions: read-out: Activity
[8] = molecular target: Protein smoothened (Homo sapiens) (UniProt Q99835); assay: Binding affinity to recombinant human Flag-6 x His-tagged Smo expressed in human HEK293T cells assessed as reduction in BODIPY-Cyclopamine binding by measuring fluorescence intensity at 3 uM incubated for 2 to 4 hrs by fluorescence microscopic competitive binding analysis relative to control; format: cell-based; design: scale not given: the % may be the effect or the level left; conditions: time 2-4 hrs

Row | SMILES | IC50 [1] [nM] | viability at 0.2 µM (Daoy [2]) [%] | Activity [3] [%] | Activity [4] | Activity (Daoy [5]) [%] | IC50 (Daoy [6]) [nM] | inhibition (Daoy [6]) | viability at 30 µM (Daoy [7]) [%] | Activity [8] [%]
1 | CS(=O)(=O)c1ccc(C(=O)Nc2ccc(Cl)c(-c3ccccn3)c2)c(Cl)c1 [VISMODEGIB] | 70 | 91.5 | – | – | – | – | – | – | –
2 | C[C@@H]1CCN=C([C@@H](C)[C@H]2CC[C@H]3[C@@H]4CC=C5C[C@@H](O)CC[C@]5(C)[C@H]4CC[C@]23C)C1=O | 5810 | – | 58.7 | Dose-Dependent Effect | 79.45 | – | – | – | –
3 | C[C@H]1CCC([C@H](C)[C@H]2CC[C@H]3[C@@H]4CC=C5C[C@@H](O)CC[C@]5(C)[C@H]4CC[C@]23C)=NC1 | 3260 | – | 53.2 | Dose-Dependent Effect | 79.45 | – | – | – | –
4 | C[C@@H]1CCN=C([C@H](C)[C@H]2CC[C@H]3[C@@H]4CC=C5C[C@@H](O)CC[C@]5(C)[C@H]4CC[C@]23C)C1=O | 1620 | – | 54.5 | Dose-Dependent Effect | 79.45 | – | – | – | –
5 | CC[C@H](C)C(=O)O[C@H]1[C@H](O)[C@H]2[C@@H](CN3C[C@@H](C)CC[C@H]3[C@@]2(C)O)[C@@H]2C[C@@]34O[C@]5(O)[C@@H]([C@@H](O)[C@@H](O)[C@H]3[C@@]21O)[C@]4(C)CC[C@@H]5O | 14300 | – | 69.4 | – | 79.45 | – | – | – | –
6 | C[C@H]1CC[C@@H]2N(C1)C[C@H]1[C@@H]3C[C@H]4[C@@H](CC=C5C[C@@H](O)CC[C@@]54C)[C@@H]3C[C@H](O)[C@@H]1[C@]2(C)O | 950 | – | 42.8 | – | 79.45 | – | – | – | –
7 | C[C@H]1CC[C@@H]2[C@@H](C)[C@H]3[C@H](C[C@H]4[C@@H]5CC=C6C[C@@H](O[C@@H]7O[C@H](CO)[C@@H](O)[C@H](O)[C@H]7O[C@@H]7O[C@@H](C)[C@H](O)[C@@H](O)[C@H]7O)CC[C@]6(C)[C@H]5CC[C@]34C)N2C1 | 720 | – | 45.1 | – | – | 5350 | Dose-Dependent Effect | 13 | –
8 | C[C@H]1CCC([C@@H](C)[C@H]2CC[C@H]3[C@@H]4CC=C5C[C@@H](O)CC[C@]5(C)[C@H]4CC[C@]23C)=NC1 [VERAZINE] | 1110 | – | 47.1 | Dose-Dependent Effect | 79.45 | – | – | – | –
9 | C[C@H]1CC[C@@H]([C@@H](C)[C@]2(C)CCC3C2=CCC2C3CC=C3C[C@@H](O[C@@H]4O[C@H](CO)[C@@H](O)[C@H](O)[C@H]4O[C@@H]4O[C@@H](C)[C@H](O)[C@@H](O)[C@H]4O)CC[C@@]32C)NC1 (stereo not given in full) | 12300 | – | – | – | 79.45 | – | – | – | 53.3
10 | CC1=C2C(=O)[C@H]3C(CC=C4C[C@@H](O)CC[C@@]43C)[C@@H]2CC[C@]12O[C@@H]1C[C@H](C)CN[C@H]1[C@H]2C (stereo not given in full) | 2350 | – | – | – | 79.45 | – | – | – | 22.3
